Like-named read-outs stand apart in the source and are kept apart here.
Experiments:
Type in all cases: in vivo
[1] = tested on: Pseudomonas syringae pv tomato; settings: survey 7 days after infection/treatment; for Leaf surface affected (%): tomato plants
From the text: Biological Evaluation of the […] of […] on Pseudomonas syringae pv tomato
In the above table, SC is an abbreviation of “concentrated aqueous suspension” and TQ of “as such”.
(§1) The day after application, the plants were infected with a suspension of bacterial cells previously cultivated in Nutrient Broth culture broth, at a bacterium-broth concentration of 1:4.
(§2) The inoculum, kept under stirring for 2 days, was sprayed on the plants in the morning, in guttation phase, with knapsack sprayers.
Visual surveys were effected 7 days after each infection/treatment, analyzing 50 plants per plot, analyzing the percentage of plants infected and the percentage of leaf surface affected.

[2] = tested on: Pseudomonas syringae pv tomato; assay: Biological evaluation of cupric salts of carboxylic acids on Pseudomonas syringae pv tomato, tomato plants in cold greenhouse (Example 10, comparative); settings: 250 ppm a.i., survey 7 days after infection/treatment, 10 plants per plot
From the text: Biological Evaluation of Cupric Salts of Carboxylic Acids on Pseudomonas syringae pv tomato
A comparison was effected between the bactericidal activity of various cupric salts of carboxylic acids described in patent application US2009/136581 with that of crystalline foiin 1.
as §1, §2
(§3) Visual surveys were effected 7 days after each infection/treatment, analyzing 10 plants per plot, analyzing the percentage of leaf surface affected.

Tomato plants = assay: Phytotoxicity on treated tomato plants (Example 10, comparative); settings: 250 ppm a.i.
From the text: as §3

Compound: O=C(O)c1ccccc1O [Salicylic acid]
- Quantity infected plants (%) ([1]; 13.6 g a.i./100 l): 40.7%
- Quantity infected plants (%) ([1]; 27.2 g a.i./100 l): 31.5%
- Quantity infected plants (%) ([1]; 54.2 g a.i./100 l): 36.3%
- Leaf surface affected (%) ([1]; 13.6 g a.i./100 l): 4.7%
- Leaf surface affected (%) ([1]; 27.2 g a.i./100 l): 3.9%
- Leaf surface affected (%) ([1]; 54.2 g a.i./100 l): 3.5%

Compound: [Cu+2].[OH-].[OH-] [Cu(OH)2, copper hydroxide]
- Quantity infected plants (%) ([1]; 6.25 g a.i./100 l): 37.5%
- Quantity infected plants (%) ([1]; 12.5 g a.i./100 l): 35.7%
- Quantity infected plants (%) ([1]; 25 g a.i./100 l, 500 l per hectare, 50 plants per plot): 31.0%
- Leaf surface affected (%) ([1]; 6.25 g a.i./100 l): 3.4%
- Leaf surface affected (%) ([1]; 12.5 g a.i./100 l): 4.9%
- Leaf surface affected (%) ([1]; 25 g a.i./100 l, 500 l per hectare): 3.9%

Compound: O=C([O-])C(O)C(O)C(=O)[O-].[Cu+2] (centres unmarked) [Copper tartrate]
- Leaf surface affected (%) [2]: 69%
- Phytotoxicity (%) (Tomato plants): 0%

Compound: O=C(O)CCC(=O)O.[Cu] [Copper succinate]
- Leaf surface affected (%) [2]: 50%
- Phytotoxicity (%) (Tomato plants): 0%

Compound: O=C(O)CCCC(=O)O.[Cu] [Copper glutarate]
- Leaf surface affected (%) [2]: 69%
- Phytotoxicity (%) (Tomato plants): 0%

Compound: O=C(O)CC(O)C(=O)O.[Cu] (centres unmarked) [Copper malate]
- Leaf surface affected (%) [2]: 5%
- Phytotoxicity (%) (Tomato plants): 20%

— patent publication US20200281208A1 (ISAGRO S.p.A., priority 2015, published 2020)
